Measured values as given in ChEMBL document CHEMBL3886392, “Substituted imidazopyrazines” (2015).

Target: T1, Dual specificity protein kinase TTK (Homo sapiens, UniProt P33981)
T1 sequence (P33981 whole entry): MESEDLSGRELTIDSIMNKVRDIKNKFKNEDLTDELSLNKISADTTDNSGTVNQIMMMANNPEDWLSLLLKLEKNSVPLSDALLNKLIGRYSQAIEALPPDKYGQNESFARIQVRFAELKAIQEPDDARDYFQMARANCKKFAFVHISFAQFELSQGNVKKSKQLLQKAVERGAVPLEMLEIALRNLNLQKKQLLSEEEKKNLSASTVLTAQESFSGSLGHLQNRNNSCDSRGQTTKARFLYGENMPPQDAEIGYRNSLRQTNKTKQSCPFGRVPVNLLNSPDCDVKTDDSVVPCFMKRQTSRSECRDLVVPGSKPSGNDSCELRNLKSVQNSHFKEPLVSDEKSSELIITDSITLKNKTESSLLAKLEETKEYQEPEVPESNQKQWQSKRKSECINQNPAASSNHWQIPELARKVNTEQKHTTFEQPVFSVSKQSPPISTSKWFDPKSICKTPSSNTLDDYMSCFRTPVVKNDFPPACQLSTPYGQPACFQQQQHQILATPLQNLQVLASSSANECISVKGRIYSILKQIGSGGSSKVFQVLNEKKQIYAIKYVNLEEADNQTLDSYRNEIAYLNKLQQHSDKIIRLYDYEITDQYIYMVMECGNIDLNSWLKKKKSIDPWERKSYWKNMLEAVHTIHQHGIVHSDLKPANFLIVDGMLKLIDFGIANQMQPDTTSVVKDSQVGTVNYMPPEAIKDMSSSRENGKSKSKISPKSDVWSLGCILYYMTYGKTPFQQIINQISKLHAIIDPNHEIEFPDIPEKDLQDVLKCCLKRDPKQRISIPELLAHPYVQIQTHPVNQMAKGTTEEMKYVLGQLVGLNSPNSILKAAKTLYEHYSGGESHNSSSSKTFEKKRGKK

IC50: 0.036 µM
SMILES: C#Cc1cn2c(-c3ccc(C(=O)NC4C[C@@H]4F)c(C)c3)cnc2c(NCCC(F)(F)F)n1 (stereo in doubt)
